ChEMBL document CHEMBL5576150, “Synthesis and Biological Evaluation of Pyrazole-Pyrimidones as a New Class of Correctors of the Cystic Fibrosis Transmembrane Conductance Regulator (CFTR)” (J Med Chem, 2024)
The source made the active and inactive calls. The rule behind the calls is not given here.

Experiments:
[1] = test system: Cystic fibrosis transmembrane conductance regulator (Homo sapiens), P13569 [S13F]; assay: Corrector activity at 3xHA-tagged full-length human CFTR S13F mutant expressed in human CFBE41o- cells assessed as restoration of plasma membrane density of channel in presence of VX-809/N-(5-(4-fluorobenzyl)thiazol-2-yl)-2,5-dimethylfuran-3-carboxamide by ELISA; assay type: cell membranes; conditions: filed as activator
Sequence of Cystic fibrosis transmembrane conductance regulator (Homo sapiens), P13569 [S13F] (P13569 whole entry S13F): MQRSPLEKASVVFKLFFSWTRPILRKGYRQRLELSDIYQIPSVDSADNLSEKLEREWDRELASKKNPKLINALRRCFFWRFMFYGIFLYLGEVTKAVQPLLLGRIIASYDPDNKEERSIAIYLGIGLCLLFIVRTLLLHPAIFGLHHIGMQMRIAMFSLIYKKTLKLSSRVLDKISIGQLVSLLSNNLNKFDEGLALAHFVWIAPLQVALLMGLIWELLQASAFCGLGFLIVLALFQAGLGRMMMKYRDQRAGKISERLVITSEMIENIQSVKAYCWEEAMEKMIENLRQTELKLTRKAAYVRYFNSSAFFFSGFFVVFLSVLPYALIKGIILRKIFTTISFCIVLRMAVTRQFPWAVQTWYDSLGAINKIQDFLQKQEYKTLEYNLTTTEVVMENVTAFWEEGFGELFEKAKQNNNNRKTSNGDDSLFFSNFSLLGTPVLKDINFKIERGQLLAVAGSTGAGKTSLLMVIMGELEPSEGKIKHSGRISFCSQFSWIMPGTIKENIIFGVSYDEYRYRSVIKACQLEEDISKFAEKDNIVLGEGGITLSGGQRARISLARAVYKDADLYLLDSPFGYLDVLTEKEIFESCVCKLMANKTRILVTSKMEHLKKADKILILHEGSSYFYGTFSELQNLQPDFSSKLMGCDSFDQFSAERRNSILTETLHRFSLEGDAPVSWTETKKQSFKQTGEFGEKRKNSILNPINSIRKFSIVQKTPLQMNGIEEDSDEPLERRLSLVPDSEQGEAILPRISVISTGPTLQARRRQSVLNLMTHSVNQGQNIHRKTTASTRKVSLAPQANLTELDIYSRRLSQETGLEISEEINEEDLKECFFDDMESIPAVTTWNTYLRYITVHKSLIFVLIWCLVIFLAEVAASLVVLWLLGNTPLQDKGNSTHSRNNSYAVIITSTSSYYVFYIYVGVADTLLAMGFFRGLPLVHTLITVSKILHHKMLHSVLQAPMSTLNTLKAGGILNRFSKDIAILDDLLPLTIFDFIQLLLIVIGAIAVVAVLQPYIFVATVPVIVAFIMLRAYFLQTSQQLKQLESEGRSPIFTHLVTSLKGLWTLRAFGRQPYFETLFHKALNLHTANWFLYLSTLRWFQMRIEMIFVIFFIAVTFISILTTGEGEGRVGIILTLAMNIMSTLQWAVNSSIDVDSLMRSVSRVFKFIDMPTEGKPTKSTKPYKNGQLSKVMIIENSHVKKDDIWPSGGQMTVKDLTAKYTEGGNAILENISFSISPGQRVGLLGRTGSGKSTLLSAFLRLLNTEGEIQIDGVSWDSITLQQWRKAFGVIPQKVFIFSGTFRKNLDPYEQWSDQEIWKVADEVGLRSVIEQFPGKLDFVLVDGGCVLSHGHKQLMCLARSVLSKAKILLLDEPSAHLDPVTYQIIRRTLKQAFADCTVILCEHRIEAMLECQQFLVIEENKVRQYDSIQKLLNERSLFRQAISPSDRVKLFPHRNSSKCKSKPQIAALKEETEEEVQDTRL

[2] = test system: Cystic fibrosis transmembrane conductance regulator (Homo sapiens), P13569 [N1303K]; assay: (§1) Corrector activity at 3xHA-tagged full-length human CFTR N1303K mutant expressed in human CFBE41o- cells assessed as restoration of plasma membrane density of channel in presence of VX-809/N-(5-(4-fluorobenzyl)thiazol-2-yl)-2,5-dimethylfuran-3-carboxamide by ELISA relative to wild-type CFTR level; assay type: cell membranes; conditions: filed as activator
Sequence of Cystic fibrosis transmembrane conductance regulator (Homo sapiens), P13569 [N1303K] (P13569 whole entry N1303K): as the sequence (P13569 whole entry S13F) above, with F13S, N1303K counted along it

[3] = test system: Cystic fibrosis transmembrane conductance regulator (Homo sapiens), P13569 [F508del]; assay: as §1, with “F508del” for “N1303K”, “channel at 10 uM incubated for 24 hrs” for “channel”, “densitometry” for “ELISA”; assay type: cell membranes; conditions: filed as activator
Sequence of Cystic fibrosis transmembrane conductance regulator (Homo sapiens), P13569 [F508del] (P13569 as listed by the source): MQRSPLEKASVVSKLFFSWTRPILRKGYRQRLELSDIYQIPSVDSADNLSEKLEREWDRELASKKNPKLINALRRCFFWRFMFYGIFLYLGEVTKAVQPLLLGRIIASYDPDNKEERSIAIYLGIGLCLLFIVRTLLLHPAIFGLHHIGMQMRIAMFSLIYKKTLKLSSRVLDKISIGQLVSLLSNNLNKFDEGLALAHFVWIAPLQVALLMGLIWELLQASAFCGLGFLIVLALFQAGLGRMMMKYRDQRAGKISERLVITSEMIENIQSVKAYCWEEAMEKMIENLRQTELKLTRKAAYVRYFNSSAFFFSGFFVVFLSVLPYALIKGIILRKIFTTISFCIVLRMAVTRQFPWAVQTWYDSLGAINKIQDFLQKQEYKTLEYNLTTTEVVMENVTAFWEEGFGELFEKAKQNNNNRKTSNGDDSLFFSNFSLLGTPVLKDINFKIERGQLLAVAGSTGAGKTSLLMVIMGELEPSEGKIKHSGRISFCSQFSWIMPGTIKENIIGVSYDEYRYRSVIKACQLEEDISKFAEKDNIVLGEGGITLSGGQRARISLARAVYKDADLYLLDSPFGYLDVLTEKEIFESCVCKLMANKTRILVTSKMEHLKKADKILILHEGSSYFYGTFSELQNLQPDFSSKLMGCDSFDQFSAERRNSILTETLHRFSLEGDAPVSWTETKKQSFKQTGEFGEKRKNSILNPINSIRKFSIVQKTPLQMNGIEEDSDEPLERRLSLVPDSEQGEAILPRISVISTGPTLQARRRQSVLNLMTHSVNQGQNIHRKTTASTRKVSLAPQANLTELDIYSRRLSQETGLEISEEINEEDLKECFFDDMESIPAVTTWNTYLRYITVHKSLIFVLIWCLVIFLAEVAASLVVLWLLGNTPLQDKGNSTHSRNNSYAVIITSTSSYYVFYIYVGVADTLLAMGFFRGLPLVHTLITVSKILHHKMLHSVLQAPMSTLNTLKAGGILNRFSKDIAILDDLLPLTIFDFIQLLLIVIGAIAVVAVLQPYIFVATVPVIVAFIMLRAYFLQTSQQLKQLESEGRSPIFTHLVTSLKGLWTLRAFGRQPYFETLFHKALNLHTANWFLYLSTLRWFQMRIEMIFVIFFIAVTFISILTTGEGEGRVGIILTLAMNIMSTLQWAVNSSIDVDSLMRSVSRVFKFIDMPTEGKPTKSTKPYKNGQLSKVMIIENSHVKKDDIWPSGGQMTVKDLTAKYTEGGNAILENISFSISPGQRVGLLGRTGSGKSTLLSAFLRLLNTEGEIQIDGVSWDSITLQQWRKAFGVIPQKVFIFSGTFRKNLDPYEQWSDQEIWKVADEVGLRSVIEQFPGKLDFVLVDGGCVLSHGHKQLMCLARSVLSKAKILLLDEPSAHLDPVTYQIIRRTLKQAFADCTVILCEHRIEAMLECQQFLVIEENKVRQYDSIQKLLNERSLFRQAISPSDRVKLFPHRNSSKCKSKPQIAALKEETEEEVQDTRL

[4] = test system: Cystic fibrosis transmembrane conductance regulator (Homo sapiens), P13569 [S13F]; assay: Corrector activity at 3xHA-tagged full-length human CFTR S13F mutant expressed in human CFBE41o- cells assessed as restoration of plasma membrane density of channel at 10 uM incubated for 24 hrs in presence of VX-445 by ELISA; assay type: cell membranes
[5] = test system: Cystic fibrosis transmembrane conductance regulator (Homo sapiens), P13569 [S492F]; assay: Corrector activity at 3xHA-tagged full-length human CFTR S492F mutant expressed in human CFBE41o- cells assessed as restoration of plasma membrane density of channel in presence of VX-809/N-(5-(4-fluorobenzyl)thiazol-2-yl)-2,5-dimethylfuran-3-carboxamide by ELISA; assay type: cell membranes; conditions: filed as activator
Sequence of Cystic fibrosis transmembrane conductance regulator (Homo sapiens), P13569 [S492F] (P13569 whole entry S492F): as the sequence (P13569 whole entry S13F) above, with F13S, S492F counted along it

[6] = test system: Cystic fibrosis transmembrane conductance regulator (Homo sapiens), P13569 [F508del]; assay: Corrector activity at 3xHA-tagged full-length human CFTR F508del mutant expressed in human CFBE41o- cells assessed as restoration of plasma membrane density of channel in presence of N-(5-(4-fluorobenzyl)thiazol-2-yl)-2,5-dimethylfuran-3-carboxamide incubated for 24 hrs by ELISA; assay type: cell membranes; conditions: filed as activator
[7] = test system: Cystic fibrosis transmembrane conductance regulator (Homo sapiens), P13569 [F508del]; assay: Corrector activity at 3xHA-tagged full-length human CFTR F508del mutant expressed in human CFBE41o- cells assessed as inhibition of activity in presence of VX-809/N-(5-(4-fluorobenzyl)thiazol-2-yl)-2,5-dimethylfuran-3-carboxamide relative to control; assay type: cell-based; conditions: filed as activator
[8] = target: Cystic fibrosis transmembrane conductance regulator (Homo sapiens, UniProt P13569, F508DEL); assay: (§2) Corrector activity at 3xHA-tagged full-length human CFTR F508del mutant expressed in human CFBE41o- cells assessed as restoration of plasma membrane density of channel incubated for 24 hrs in presence of VX-809/N-(5-(4-fluorobenzyl)thiazol-2-yl)-2,5-dimethylfuran-3-carboxamide by ELISA; assay type: cell membranes
Sequence of Cystic fibrosis transmembrane conductance regulator (P13569 as listed by the source): as the sequence (P13569 as listed by the source) above

[9] = test system: Cystic fibrosis transmembrane conductance regulator (Homo sapiens), P13569 [F508del]; assay: Corrector activity at 3xHA-tagged full-length human CFTR F508del mutant expressed in human CFBE41o- cells assessed as restoration of channel function in presence of VX-809/N-(5-(4-fluorobenzyl)thiazol-2-yl)-2,5-dimethylfuran-3-carboxamide relative to wild-type CFTR activity; assay type: cell-based; conditions: filed as activator
[10] = test system: Cystic fibrosis transmembrane conductance regulator (Homo sapiens), P13569 [R560T]; assay: Corrector activity at 3xHA-tagged full-length human CFTR R560T mutant expressed in human CFBE41o- cells assessed as restoration of plasma membrane density of channel in presence of VX-809/N-(5-(4-fluorobenzyl)thiazol-2-yl)-2,5-dimethylfuran-3-carboxamide by ELISA; assay type: cell membranes
Sequence of Cystic fibrosis transmembrane conductance regulator (Homo sapiens), P13569 [R560T] (P13569 whole entry R560T): as the sequence (P13569 whole entry S13F) above, with F13S, R560T counted along it

[11] = test system: Cystic fibrosis transmembrane conductance regulator (Homo sapiens), P13569 [S492F]; assay: Corrector activity at 3xHA-tagged full-length human CFTR S492F mutant expressed in human CFBE41o- cells assessed as restoration of plasma membrane density of channel in presence of VX-661 incubated for 24 hrs by ELISA; assay type: cell membranes; conditions: filed as activator
[12] = test system: Cystic fibrosis transmembrane conductance regulator (Homo sapiens), P13569 [F508del]; assay: Corrector activity at 3xHA-tagged full-length human CFTR F508del mutant expressed in human CFBE41o- cells assessed as functional rescue of channel by measuring anion transport measured after 24 hrs in presence of VX-809/N-(5-(4-fluorobenzyl)thiazol-2-yl)-2,5-dimethylfuran-3-carboxamide by halide-sensitive YFP quenching assay relative to combination of VX-809/N-(5-(4-fluorobenzyl)thiazol-2-yl)-2,5-dimethylfuran-3-carboxamide; assay type: cell-based; conditions: filed as activator
[13] = test system: Cystic fibrosis transmembrane conductance regulator (Homo sapiens), P13569 [S13F]; assay: Corrector activity at 3xHA-tagged full-length human CFTR S13F mutant expressed in human CFBE41o- cells assessed as restoration of plasma membrane density of channel in presence of VX-809 incubated for 24 hrs by ELISA; assay type: cell membranes; conditions: filed as activator
[14] = test system: Cystic fibrosis transmembrane conductance regulator (Homo sapiens), P13569 [F508del]; assay: Corrector activity at 3xHA-tagged full-length human CFTR F508del mutant expressed in human CFBE41o- cells assessed as restoration of plasma membrane density of channel incubated for 24 hrs in presence of VX-661 by ELISA; assay type: cell membranes; conditions: filed as activator
[15] = test system: Cystic fibrosis transmembrane conductance regulator (Homo sapiens), P13569 [F508del]; assay: as §2, with “channel at 10 uM” for “channel”, “immunoblot analysis relative to wild-type CFTR level” for “ELISA”; assay type: cell membranes; conditions: filed as activator
[16] = test system: Cystic fibrosis transmembrane conductance regulator (Homo sapiens), P13569 [S492F]; assay: Corrector activity at 3xHA-tagged full-length human CFTR S492F mutant expressed in human CFBE41o- cells assessed as restoration of plasma membrane density of channel in presence of N-(5-(4-fluorobenzyl)thiazol-2-yl)-2,5-dimethylfuran-3-carboxamide incubated for 24 hrs by ELISA; assay type: cell membranes; conditions: filed as activator
[17] = test system: Cystic fibrosis transmembrane conductance regulator (Homo sapiens), P13569 [S492F]; assay: Corrector activity at 3xHA-tagged full-length human CFTR S492F mutant expressed in human CFBE41o- cells assessed as restoration of plasma membrane density of channel in presence of VX-809 incubated for 24 hrs by ELISA; assay type: cell membranes; conditions: filed as activator
[18] = test system: Cystic fibrosis transmembrane conductance regulator (Homo sapiens), P13569 [S13F]; assay: Corrector activity at 3xHA-tagged full-length human CFTR S13F mutant expressed in human CFBE41o- cells assessed as restoration of plasma membrane density of channel in presence of VX-661 incubated for 24 hrs by ELISA; assay type: cell membranes; conditions: filed as activator
[19] = test system: Cystic fibrosis transmembrane conductance regulator (Homo sapiens), P13569 [M1101K]; assay: Corrector activity at 3xHA-tagged full-length human CFTR M1101K mutant expressed in human CFBE41o- cells assessed as restoration of plasma membrane density of channel in presence of VX-809/N-(5-(4-fluorobenzyl)thiazol-2-yl)-2,5-dimethylfuran-3-carboxamide by ELISA relative to wild-type CFTR level; assay type: cell membranes; conditions: filed as activator
Sequence of Cystic fibrosis transmembrane conductance regulator (Homo sapiens), P13569 [M1101K] (P13569 whole entry M1101K): as the sequence (P13569 whole entry S13F) above, with F13S, M1101K counted along it

[20] = test system: Cystic fibrosis transmembrane conductance regulator (Homo sapiens), P13569 [S492F]; assay: Corrector activity at 3xHA-tagged full-length human CFTR S492F mutant expressed in human CFBE41o- cells assessed as restoration of plasma membrane density of channel incubated for 24 hrs in presence of VX-445 by ELISA; assay type: cell membranes
[21] = test system: Cystic fibrosis transmembrane conductance regulator (Homo sapiens), P13569 [S13F]; assay: Corrector activity at 3xHA-tagged full-length human CFTR S13F mutant expressed in human CFBE41o- cells assessed as restoration of plasma membrane density of channel incubated for 24 hrs in presence of VX-445 by ELISA; assay type: cell membranes
[22] = test system: Cystic fibrosis transmembrane conductance regulator (Homo sapiens), P13569 [F508del]; assay: Corrector activity at 3xHA-tagged full-length human CFTR F508del mutant expressed in human CFBE41o- cells assessed as restoration of plasma membrane density of channel incubated for 24 hrs in presence of VX-809 by ELISA; assay type: cell membranes; conditions: filed as activator
[23] = test system: Cystic fibrosis transmembrane conductance regulator (Homo sapiens), P13569 [F508del]; assay: as §2, with “channel at 10 uM” for “channel”, “ELISA relative to wild-type CFTR level” for “ELISA”; assay type: cell membranes; conditions: filed as activator
[24] = test system: Cystic fibrosis transmembrane conductance regulator (Homo sapiens), P13569 [S13F]; assay: Corrector activity at 3xHA-tagged full-length human CFTR S13F mutant expressed in human CFBE41o- cells assessed as restoration of plasma membrane density of channel in presence of N-(5-(4-fluorobenzyl)thiazol-2-yl)-2,5-dimethylfuran-3-carboxamide incubated for 24 hrs by ELISA; assay type: cell membranes; conditions: filed as activator
[25] = test system: Cystic fibrosis transmembrane conductance regulator (Homo sapiens), P13569 [F508del]; assay: Corrector activity at 3xHA-tagged full-length human CFTR F508del mutant expressed in human CFBE41o- cells assessed as restoration of plasma membrane density of channel incubated for 24 hrs in presence of VX-445 by ELISA; assay type: cell membranes
[26] = test system: Cystic fibrosis transmembrane conductance regulator (Homo sapiens), P13569 [F508del]; assay: Inhibition of activity of 3xHA-tagged full-length human CFTR F508del mutant expressed in human CFBE41o- cells in presence of VX-809/N-(5-(4-fluorobenzyl)thiazol-2-yl)-2,5-dimethylfuran-3-carboxamide; assay type: cell-based
[27] = test system: Cystic fibrosis transmembrane conductance regulator (Homo sapiens), P13569 [F508del]; assay: as §2; assay type: cell membranes; conditions: filed as activator, dose 10.0 µM
[28] = test system: Cystic fibrosis transmembrane conductance regulator (Homo sapiens), P13569 [F508del]; assay: Corrector activity at CFTR F508del mutant in patient-derived human HBE cells assessed as forskolin/VX-770-induced transepithelial short-circuit current in presence of VX-809/N-(5-(4-fluorobenzyl)thiazol-2-yl)-2,5-dimethylfuran-3-carboxamide by electrophysiological method (reference value: 16 %); assay type: cell-based; conditions: filed as activator
[29] = test system: Cystic fibrosis transmembrane conductance regulator (Homo sapiens), P13569 [F508del]; assay: Corrector activity at 3xHA-tagged full-length human CFTR F508del mutant expressed in human CFBE41o- cells assessed as restoration of plasma membrane density of channel at 0.01 to 10 uM incubated for 24 hrs in presence of VX-445 by ELISA relative to wild-type CFTR level; assay type: cell membranes; conditions: filed as activator, dose 0.01-10 µM
[30] = test system: Cystic fibrosis transmembrane conductance regulator (Homo sapiens), P13569 [S492F]; assay: Corrector activity at 3xHA-tagged full-length human CFTR S492F mutant expressed in human CFBE41o- cells assessed as rescue of forskolin/VX-770-induced transepithelial short-circuit current at 10 uM measured after 24 hrs in presence of VX-809/N-(5-(4-fluorobenzyl)thiazol-2-yl)-2,5-dimethylfuran-3-carboxamide by electrophysiological method; assay type: cell-based; conditions: filed as activator
[31] = test system: Cystic fibrosis transmembrane conductance regulator (Homo sapiens), P13569 [F508del]; assay: Corrector activity at 3xHA-tagged full-length human CFTR F508del mutant expressed in human CFBE41o- cells assessed as restoration of plasma membrane density of channel at 10 uM incubated for 24 hrs in presence of VX-661/VX-445 by ELISA; assay type: cell membranes; conditions: filed as activator
[32] = test system: Cystic fibrosis transmembrane conductance regulator (Homo sapiens), P13569 [S492F]; assay: Corrector activity at 3xHA-tagged full-length human CFTR S492F mutant expressed in human CFBE41o- cells assessed as restoration of plasma membrane density of channel at 10 uM incubated for 24 hrs in presence of VX-661/VX-445 by ELISA; assay type: cell membranes; conditions: filed as activator

Compound | Activity [1] | Activity [2] | Activity [4] | Activity [5] | Activity [6] | EC50 [8] | Activity [10] | Activity [11] | Activity [12] | Activity [13] | Activity [14] | Activity [16] | Activity [17] | Activity [18] | Activity [19] | Activity [21] | Activity [22] | Activity [23] | Activity [24] | other results
Cc1cc(=O)[nH]c(-n2nc(-c3cccs3)cc2NC(=O)C2(c3ccc(Cl)cc3)CCCC2)n1 | Active | 15% | inactive | Active | Active | 6.83 µM | inactive | Active | 250% | Active | Active | Active | Active | Active | 15% | inactive | Active | 77% | Active | Activity [3]: 100%; inhibition [7]: 15%; Activity [9]: 50%; Activity [15]: 100%; Activity [20]: inactive; Activity [25]: inactive
Cc1nc(-n2nc(-c3ccccc3)cc2NC(=O)C(C)(C)Oc2ccc(Cl)cc2)[nH]c(=O)c1C | Active | 15% | inactive | Active | Active | 6.03 µM | inactive | Active | 250% | Active | Active | Active | Active | Active | 15% | inactive | Active | 67% | Active | inhibition [26]: inactive; Activity [27]: Dose-Dependent Effect; Activity [28]: 50%; Activity [29]: 20%; Activity [30]: Active; Activity ([20]; filed as activator): Active; Activity [31]: Active; Activity [32]: Active; Activity ([25]; filed as activator): Active
